The source of these data is article PMC12260535, “A novel thiazole-sulfonamide hybrid molecule as a promising dual tubulin/carbonic anhydrase IX inhibitor with anticancer activity” (Frontiers in Chemistry, 2025).

Test [1] has as its system MCF-7 (breast adenocarcinoma) cells. The test can be described thus: MTT antiproliferative assay, MCF-7. It counts as cell-based. The conditions noted are these: Homo sapiens, read-out: IC50 MCF-7. The procedure: (§1) . All cell lines were obtained from the Vacsera Cell Culture Library, Tissue Culture Unit, Cairo, Egypt, with ATCC certification. […] Check Appendix A for additional information.
(§2) . Cells were cultured in their respective recommended media supplemented with 10% fetal bovine serum and 1% penicillin-streptomycin and maintained at 37 °C in a humidified atmosphere containing 5% CO₂. Cell viability was assessed using the MTT assay, following the protocol provided with the In Vitro Toxicology Assay Kit, MTT Based (Sigma-Aldrich, TOX-1). Briefly, cells were seeded in 96-well plates at a density of 5 × 10³ cells/well and allowed to adhere overnight. […] Subsequently, 10 µL of reconstituted MTT solution (5 mg/mL in serum-free, phenol red-free medium) was added to each well and incubated for 3 h at 37 °C. The resulting formazan crystals were dissolved by adding 100 µL of the MTT Solubilization Solution, and the plates were gently shaken to ensure complete solubilization. Absorbance was recorded at 570 nm with a reference wavelength of 690 nm using a microplate reader. Cell viability was expressed as a percentage relative to untreated control cells. All experiments were conducted in triplicate, and IC₅₀ values were determined using linear regression analysis.
For orientation: Tetrazolium assays rely on reduction of a dye to a coloured formazan, in cell work by metabolically active cells.

Test [2] has as its system WI-38 normal lung fibroblast cells. The test can be described thus: MTT cytotoxicity assay, normal WI-38 fibroblasts. The format is cell-based. The conditions noted are these: Homo sapiens, 48 h, WI-38 normal fibroblasts. The protocol:
(§3) All cell lines were obtained from the Vacsera Cell Culture Library, Tissue Culture Unit, Cairo, Egypt, with ATCC certification. The assay enabled the detection of membrane-compromised cells based on the fluorescence intensity of DNA binding. Check Appendix A for additional information.
as §2, with “Cells” for “. Cells”

The subject of test [3] is A549 (lung carcinoma) cells. The experiment in a line: MTT antiproliferative assay, A549. It counts as cell-based. The conditions noted are these: Homo sapiens, read-out: IC50 A549. The protocol: as §1, §2
For test [4], the system named is 786-O (renal carcinoma) cells. The experiment in a line: MTT antiproliferative assay, 786-O. The format is cell-based. The conditions noted are these: Homo sapiens, read-out: IC50 786-O. The protocol: as §3
as §2, with “Cells” for “. Cells”

Test [5] relates to HT-29 (colon adenocarcinoma) cells. The experiment in a line: MTT antiproliferative assay, HT-29. It counts as cell-based. To be noted: Homo sapiens, 48 h, HT-29 colorectal cancer cells. The protocol:
as §3
as §2, with “Cells” for “. Cells”

The target in another test is CA XII (Homo sapiens, UniProt O43570). The experiment in a line: Carbonic anhydrase inhibitor screening kit (colorimetric), CA XII.
Another test has as its system Bax. The test can be described thus: Bax ELISA in HT-29 cells. It counts as cell-based, human. The procedure: Changes in Bax levels were quantified in treated cell lysates to assess the apoptotic response. Comprehensive assay details are available in Appendix A (Supplementary Material).
This sandwich-based immunoassay utilizes a monoclonal antibody specific for human BAX-α to capture and quantify the protein in cell lysates. Cells were lysed using the provided Cell Lysis Buffer, freshly supplemented with phenylmethylsulfonyl fluoride (PMSF, 1 mM) and protease inhibitor cocktail (PIC, 0.5 µL/mL). Lysates were incubated on ice, vortexed, and centrifuged at 16,000 rpm for 15 minutes at 4 °C. The supernatants were collected and diluted with the kit's Assay Buffer. A standard curve was generated using BAX-α standards with concentrations of 62.5, 125, 250, 500, 1000, and 2000 ng/mL. The corresponding net absorbance values (after subtracting the average blank OD of 0.023) were 0.110, 0.192, 0.338, 0.781, 1.443, and 2.496, respectively. Absorbance was measured at 450 nm with a reference wavelength of 570–590 nm. BAX concentrations in the samples were calculated using linear regression analysis based on the standard curve obtained. The assay provided a sensitive and quantitative measure of BAX modulation in response to compound 7.
Background: ELISA stands for enzyme-linked immunosorbent assay.

The next test concerns caspase-3. The experiment in a line: Active caspase-3 ELISA in HT-29 cells. It counts as cell-based, human. An excerpt:
This sandwich ELISA detects caspase-3 cleaved at Asp175/Ser176, enabling sensitive colorimetric measurement at 450 nm. Additional procedural details are provided in Appendix A (Supplementary Material).
This assay is based on a solid-phase sandwich ELISA principle, where an anti-human caspase-3 monoclonal antibody is pre-coated onto a microplate. Cell lysates or standards are captured by this antibody, followed by the addition of a rabbit polyclonal detection antibody specific for active caspase-3 cleaved at Asp175/Ser176. Detection is then performed using HRP-conjugated anti-rabbit IgG and TMB substrate. Cell lysates were prepared in protease inhibitor-supplemented cell extraction buffer and clarified by centrifugation. Samples were diluted in Standard Diluent Buffer and added to the wells along with a standard curve of human active caspase-3. The standard concentrations included 39, 78, 156, 313, 625, 1250, and 2500 ng/mL, which yielded optical density (OD) readings ranging from 0.192 to 2.733. A blank reading of 0.018 was subtracted from each standard OD, and the resulting data were used to generate a standard curve. […] After color development, the reaction was stopped with acid, and absorbance was read at 450 nm. The concentration of active caspase-3 in treated samples was determined using linear regression analysis of the standard curve. […]

The target of the next test is CA I (Homo sapiens, UniProt P00915). The test can be described thus: Carbonic anhydrase inhibitor screening kit (colorimetric), CA I.
Test [6] addresses CA IX (Homo sapiens, UniProt Q16790). The test can be described thus: Carbonic anhydrase inhibitor screening kit (colorimetric), CA IX.
The target in a further test is CA II (Homo sapiens, UniProt P00918). The experiment in a line: Carbonic anhydrase inhibitor screening kit (colorimetric), CA II.
In a further test the test system is p53. The test can be described thus: p53 ELISA in HT-29 cells. The format is cell-based, human.
Another test deals with caspase-9. The test can be described thus: Caspase-9 ELISA in HT-29 cells. The format is cell-based, human. An excerpt: This assay employs a sandwich ELISA format, utilizing a specific capture antibody and an HRP-conjugated detection system, with absorbance measured at 450 nm. A detailed methodology is provided in Appendix A (Supplementary Material).
This solid-phase sandwich ELISA employs a monoclonal antibody pre-coated on a 96-well microplate to capture caspase-9 from samples. A rabbit polyclonal detection antibody specific to human caspase-9 is subsequently added, followed by an HRP-conjugated anti-rabbit IgG and TMB substrate for colorimetric detection. The intensity of the yellow product formed after stopping the reaction with phosphoric acid is proportional to the amount of caspase-9 present and is measured at 450 nm. […] Lysates were centrifuged at 1,000 × g for 15 minutes, and the clear supernatants were collected and either analyzed immediately or stored at –80 °C. […] Standard concentrations of 1.6, 3.1, 6.3, 12.5, 25, 50, and 100 ng/mL yielded OD values of 0.140, 0.167, 0.213, 0.239, 0.501, 0.799, and 1.639 respectively, with a blank reading of 0.042. Net OD values were calculated by subtracting the blank absorbance, and the standard curve was constructed accordingly. The concentration of caspase-9 in each sample was determined using linear regression analysis, and final values were adjusted by the dilution factor.

For a further test, the system named is Bcl-2. The test can be described thus: Bcl-2 ELISA in HT-29 cells. The format is cell-based, human. The procedure:
Absorbance was measured at 450 nm to determine changes in Bcl-2 expression in response to treatment. A full description of the assay protocol is included in Appendix A (Supplementary Material).
The assay is based on a sandwich ELISA format, where human Bcl-2 is captured by a monoclonal antibody coated on a microwell plate and detected using a biotin-conjugated anti-Bcl-2 antibody followed by Streptavidin-HRP and TMB substrate. Cells were lysed using the supplied Lysis Buffer at a concentration of 5 × 10⁶ cells/mL and incubated for 1 hour at room temperature with gentle shaking. Lysates were clarified by centrifugation at 1000 × g for 15 minutes, and the supernatants were collected for immediate use or stored at –80 °C. For the assay, 20 µL of sample was added to wells along with 80 µL of Sample Diluent, followed by 50 µL of diluted biotin-conjugate. After a 2-hour incubation at room temperature, plates were washed and incubated with diluted Streptavidin-HRP for 1 hour. […] Absorbance was measured at 450 nm with optional correction between 610–650 nm. […] The corresponding absorbance values ranged from approximately 0.121 to 2.461, with a background (blank) absorbance of 0.023. Net absorbance values were calculated by subtracting the blank from each standard, and the resulting data were used to construct a calibration curve. […]

Test [7] addresses CA IX. The conditions noted are these: cited from earlier work.
In another test the test system is tubulin. The conditions noted are these: read-out: tubulin polymerization IC50, cited from earlier work.

Where two headings read alike, the source gives them in different places.

Chain of CA I (P00915 whole entry): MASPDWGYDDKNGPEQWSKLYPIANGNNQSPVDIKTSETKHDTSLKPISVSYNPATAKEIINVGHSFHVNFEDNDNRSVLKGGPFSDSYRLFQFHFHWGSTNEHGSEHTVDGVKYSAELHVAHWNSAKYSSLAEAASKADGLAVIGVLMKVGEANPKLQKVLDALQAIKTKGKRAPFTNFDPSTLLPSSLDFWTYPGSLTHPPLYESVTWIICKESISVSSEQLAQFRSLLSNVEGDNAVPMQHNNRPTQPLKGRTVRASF
Chain of CA XII (O43570 25-354): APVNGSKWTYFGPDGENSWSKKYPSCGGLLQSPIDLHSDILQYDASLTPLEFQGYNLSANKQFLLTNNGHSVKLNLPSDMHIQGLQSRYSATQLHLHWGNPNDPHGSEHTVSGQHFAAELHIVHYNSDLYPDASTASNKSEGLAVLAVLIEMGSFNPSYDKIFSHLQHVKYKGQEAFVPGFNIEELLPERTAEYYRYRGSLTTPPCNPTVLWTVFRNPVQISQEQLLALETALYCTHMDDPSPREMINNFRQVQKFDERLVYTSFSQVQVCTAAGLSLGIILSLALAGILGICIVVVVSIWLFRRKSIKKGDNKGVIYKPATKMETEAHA

One may read the IC50 as the point on the concentration scale where inhibition reaches its midpoint. For the compound `COc1ccc(/C=C\c2cc(OC)c(OC)c(OC)c2)cc1O` [CA-4, combretastatin A-4, reference compound], the IC50 in test [1] (MCF7, MTT assay, 48 h, MCF-7 breast cancer cells) was determined as 1820 nM; in test [2] it was 28100 nM; in test [3] (MTT assay, 48 h, A549 lung cancer cells) it was 440 nM; in [4] (786-0, MTT assay, 48 h, 786-O renal cancer cells), 3270 nM; in test [5], 2150 nM.
With `Cc1[nH]c(=S)sc1C(=O)/C=C/c1ccc(S(N)(=O)=O)cc1` [Compound 7, (E)-4-(3-(4-methyl-2-thioxo-2,3-dihydrothiazol-5-yl)-3-oxoprop-1-en-1-yl)benzenesulfonamide], the IC50 against CA XII was 114 ± 12 nM; in test [1] (MCF7, 48 h) it was 3630 nM; on CA I it was 1900 ± 250 nM; in test [3] (A549, 48 h), 6820 nM; in [4] (786-0, 48 h) it was 1560 nM; against CA IX [6], 21 ± 4 nM. At CA II, half-maximal inhibition (IC50) required 381 ± 45 nM. Also, the “Bax Conc” value in the test on Bax (ELISA, DMSO control 68.50 ± 1.67) was found to be 392.25 ± 14.58 pg/mL. Besides, the “Bax Fold change” value in the test on Bax (versus DMSO control) worked out at 5.73. The “Caspase 3 Conc” value in the test on caspase-3 (ELISA, DMSO control 57.64 ± 1.36) stood at 511.27 ± 13.18 pg/mL. Also, the “Caspase 3 Fold change” value in the test on caspase-3 (versus DMSO control) is recorded as 8.87. In addition, in the test on p53 (ELISA, DMSO control 150.66 ± 3.33), the “P53 Conc” value was 1,224.00 ± 6.67 pg/mL. The “P53 Fold change” value in the test on p53 (versus DMSO control) stood at 8.12. Further, the “Caspase-9 Conc” value in the test with caspase-9 (ELISA, DMSO control 5.09 ± 0.26) was 49.39 ± 1.13 ng/mL. In addition, the “Caspase-9 Fold change” value in the test on caspase-9 (versus DMSO control) is reported as 9.70. In the test with Bcl-2 (ELISA, DMSO control 19.25 ± 0.43), the “Bcl-2 Conc” value is given as 6.212 ± 0.093 pg/mL. Also, the “Bcl-2 Fold change” value with Bcl-2 (versus DMSO control) was found to be 0.323.
By Ki is commonly meant a dissociation constant, usually derived from enzyme kinetics or from competition with a known ligand. For the compound `NS(=O)(=O)c1ccc(NC(=O)Nc2cc3cc(Br)ccc3o2)cc1` [Compound II], the Ki on CA IX [7] (ref Shaldam et al., 2021) is 5.5 nM.
For `COc1ccc2[nH]cc(/C=N/Nc3nc(-c4cccc(Br)c4)cs3)c2c1` [Compound VII], the concentration for half-maximal inhibition (IC50) with tubulin (ref Wang et al., 2024) is 1680 nM.
In the case of `COc1cc(-c2csc(NC(=O)CNc3ccc([N+](=O)[O-])cc3)n2)cc(OC)c1OC` [compound VIII], the IC50 in the test on tubulin (ref El-Abd et al., 2022) was 2000 nM.
In the case of `CCOc1ccc(-c2sc(N)nc2-c2ccc(OC)c3ccccc23)cc1` [compound VI], in the test with tubulin (ref Wang et al., 2021), the IC50 is 3300 nM.
As to `COc1cc(/C=C/C(=O)c2nnn(-c3ccc(S(N)(=O)=O)cc3)c2C)cc(OC)c1OC` [compound V], on CA IX [7] (ref Abdelhakeem et al., 2024), the Ki was 30 nM.
